How the values were obtained:
Format in all cases: in vivo
[1] = system: Kochia (Kochia scoparia); assay: Test A preemergence; conditions: Bassia scoparia, pre-emergence, 240 h; for pest or weed control at 125 g/ha: 125 g ai/ha, Preemergence, visual injury rating after approximately 10 d, read-out: Kochia plant response rating (0 to 100 scale, 0 is no effect, 100 is complete control); for pest or weed control at 500 g/ha: 500 g ai/ha, preemergence, visual injury rating about 10 d after treatment, 0 to 100 scale (0 no effect, 100 complete control), read-out: Kochia plant response rating
How it was run: (§1)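 Visual injury scores from 0, no effect, to 100, complete control, were assigned versus untreated controls roughly 10 d after treatment in the greenhouse. Test chemicals, formulated with surfactant in a non-phytotoxic solvent, were applied to planted seeds as a preemergence soil spray or postemergence to one- to two-leaf plants 2 to 10 cm tall, in loam–sand soil.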

[2] = system: barnyardgrass (Echinochloa crus-galli); assay: Test A preemergence; conditions: Echinochloa crus-galli, pre-emergence, 240 h; for pest or weed control at 125 g/ha: 125 g ai/ha, Preemergence, visual injury rating after approximately 10 d, read-out: Barnyardgrass plant response rating (0 to 100 scale, 0 is no effect, 100 is complete control); for pest or weed control at 500 g/ha: 500 g ai/ha, preemergence, visual injury rating about 10 d after treatment, 0 to 100 scale (0 no effect, 100 complete control), read-out: Barnyardgrass plant response rating
How it was run: as §1

[3] = system: giant foxtail (Setaria faberii); assay: Test A preemergence; conditions: Setaria faberi, pre-emergence, 240 h; for pest or weed control at 125 g/ha: 125 g ai/ha, Preemergence, visual injury rating after approximately 10 d, read-out: Foxtail, Giant plant response rating (0 to 100 scale, 0 is no effect, 100 is complete control); for pest or weed control at 500 g/ha: 500 g ai/ha, preemergence, visual injury rating about 10 d after treatment, 0 to 100 scale (0 no effect, 100 complete control), read-out: Foxtail, Giant plant response rating
How it was run: as §1

[4] = system: pigweed (Amaranthus retroflexus); assay: Test A preemergence; conditions: Amaranthus retroflexus, pre-emergence, 240 h; for pest or weed control at 125 g/ha: 125 g ai/ha, Preemergence, visual injury rating after approximately 10 d, read-out: Pigweed plant response rating (0 to 100 scale, 0 is no effect, 100 is complete control); for pest or weed control at 500 g/ha: 500 g ai/ha, preemergence, visual injury rating about 10 d after treatment, 0 to 100 scale (0 no effect, 100 complete control), read-out: Pigweed plant response rating
[5] = system: ragweed (common ragweed, Ambrosia elatior); assay: Test A preemergence; conditions: Ambrosia artemisiifolia, pre-emergence, 240 h; for pest or weed control at 500 g/ha: 500 g ai/ha, preemergence, visual injury rating about 10 d after treatment, 0 to 100 scale (0 no effect, 100 complete control), read-out: Ragweed plant response rating; for pest or weed control at 125 g/ha: 125 g ai/ha, Preemergence, visual injury rating after approximately 10 d, read-out: Ragweed plant response rating (0 to 100 scale, 0 is no effect, 100 is complete control)
How it was run: as §1

[6] = system: ryegrass, Italian (Italian ryegrass, Lolium multiflorum); assay: Test A preemergence; conditions: Lolium multiflorum, pre-emergence, 240 h; for pest or weed control at 125 g/ha: 125 g ai/ha, Preemergence, visual injury rating after approximately 10 d, read-out: Ryegrass, Italian plant response rating (0 to 100 scale, 0 is no effect, 100 is complete control); for pest or weed control at 500 g/ha: 500 g ai/ha, preemergence, visual injury rating about 10 d after treatment, 0 to 100 scale (0 no effect, 100 complete control), read-out: Ryegrass, Italian plant response rating
How it was run: as §1

[7] = system: Galium (catchweed bedstraw, Galium aparine); assay: Test A postemergence; conditions: Galium, post-emergence, 240 h, 125 g ai/ha, Postemergence; visual injury after approximately 10 d; 0 to 100 scale where 0 is no effect and 100 is complete control; read-out: Plant response rating, Galium
How it was run: as §1

[8] = system: Kochia (Kochia scoparia); assay: Test A postemergence; conditions: Bassia scoparia, post-emergence, 240 h, 125 g ai/ha, Postemergence; visual injury after approximately 10 d; 0 to 100 scale where 0 is no effect and 100 is complete control; read-out: Plant response rating, Kochia
How it was run: as §1

[9] = system: blackgrass (Alopecurus myosuroides); assay: Test A postemergence; conditions: Alopecurus myosuroides, post-emergence, 240 h, 125 g ai/ha, Postemergence; visual injury after approximately 10 d; 0 to 100 scale where 0 is no effect and 100 is complete control; read-out: Plant response rating, Blackgrass
How it was run: as §1

[10] = system: corn (Zea mays); assay: Test A postemergence; conditions: Zea mays, post-emergence, 240 h, 125 g ai/ha, Postemergence; visual injury after approximately 10 d; 0 to 100 scale where 0 is no effect and 100 is complete control
How it was run: as §1

[11] = system: giant foxtail (Setaria faberii); assay: Test A postemergence; conditions: Setaria faberi, post-emergence, 240 h, 125 g ai/ha, Postemergence; visual injury after approximately 10 d; 0 to 100 scale where 0 is no effect and 100 is complete control; read-out: Plant response rating, Foxtail, Giant
How it was run: as §1

[12] = system: pigweed (Amaranthus retroflexus); assay: Test A postemergence; conditions: Amaranthus retroflexus, post-emergence, 240 h, 125 g ai/ha, Postemergence; visual injury after approximately 10 d; 0 to 100 scale where 0 is no effect and 100 is complete control; read-out: Plant response rating, Pigweed
How it was run: as §1

[13] = system: ragweed (common ragweed, Ambrosia elatior); assay: Test A postemergence; conditions: Ambrosia artemisiifolia, post-emergence, 240 h, 125 g ai/ha, Postemergence; visual injury after approximately 10 d; 0 to 100 scale where 0 is no effect and 100 is complete control; read-out: Plant response rating, Ragweed
How it was run: as §1

[14] = system: ryegrass, Italian (Italian ryegrass, Lolium multiflorum); assay: Test A postemergence; conditions: Lolium multiflorum, post-emergence, 240 h, 125 g ai/ha, Postemergence; visual injury after approximately 10 d; 0 to 100 scale where 0 is no effect and 100 is complete control; read-out: Plant response rating, Ryegrass, Italian
How it was run: as §1

[15] = system: wheat (Triticum aestivum); assay: Test A postemergence; conditions: Triticum aestivum, post-emergence, 240 h, 125 g ai/ha, Postemergence; visual injury after approximately 10 d; 0 to 100 scale where 0 is no effect and 100 is complete control; read-out: Plant response rating, Wheat
How it was run: as §1

[16] = system: barnyardgrass (Echinochloa crus-galli); assay: Test B flooded paddy test; conditions: Echinochloa crus-galli, Flood, 250 g ai/ha; scale of 0 to 100 where 0 is no effect and 100 is complete control; read-out: Barnyardgrass plant response rating
How it was run: (§2)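 Response scored visually against untreated controls, 0 = no effect and 100 = complete control, 13–15 d after treatment in the greenhouse. Compounds added to paddy water held 3 cm above soil surface. Treatment given at 2-leaf stage.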

[17] = system: ducksalad (Heteranthera limosa); assay: Test B flooded paddy test; conditions: Heteranthera limosa, Flood, 250 g ai/ha; scale of 0 to 100 where 0 is no effect and 100 is complete control; read-out: Ducksalad plant response rating
How it was run: as §2

[18] = system: rice (Oryra sativa); assay: Test B flooded paddy test; conditions: Oryza sativa, Flood, 250 g ai/ha; scale of 0 to 100 where 0 is no effect and 100 is complete control; read-out: Rice plant response rating
How it was run: as §2

[19] = system: sedge, umbrella (small-flower umbrella sedge, Cyperus difformis); assay: Test B flooded paddy test; conditions: Cyperus difformis, Flood, 250 g ai/ha; scale of 0 to 100 where 0 is no effect and 100 is complete control; read-out: Sedge, Umbrella plant response rating
How it was run: as §2

| Compound | pest or weed control at 125 g/ha [1] [%] | pest or weed control at 500 g/ha [1] [%] | pest or weed control at 125 g/ha [2] [%] | pest or weed control at 500 g/ha [2] [%] | pest or weed control at 125 g/ha [3] [%] | pest or weed control at 500 g/ha [3] [%] | pest or weed control at 125 g/ha [4] [%] | pest or weed control at 500 g/ha [4] [%] | pest or weed control at 500 g/ha [5] [%] | pest or weed control at 125 g/ha [6] [%] | pest or weed control at 500 g/ha [6] [%] | pest or weed control at 125 g/ha [7] [%] | pest or weed control at 125 g/ha [8] [%] | pest or weed control at 125 g/ha [9] [%] | Corn plant response rating (crop injury, 0 = no effect, 100 = complete kill) at 125 g/ha [10] [%] | pest or weed control at 125 g/ha [11] [%] | pest or weed control at 125 g/ha [12] [%] | pest or weed control at 125 g/ha [13] [%] | pest or weed control at 125 g/ha [14] [%] | plant injury at 125 g/ha [15] [%] | other results |
| --- | --- | --- | --- | --- | --- | --- | --- | --- | --- | --- | --- | --- | --- | --- | --- | --- | --- | --- | --- | --- | --- |
| CSc1ccccc1NC(=O)[C@H]1C(=O)N(C)C[C@@H]1c1cc(F)cc(Cl)c1 [Compound 975] | 50 | 90 | 90 | 100 | 90 | 90 | 20 | 90 | 90 | 30 | 40 | 50 | 40 | 50 | 20 | 90 | 30 | 0 | 20 | 20 | pest or weed control at 250 g/ha [16]: 40%; pest or weed control at 250 g/ha [17]: 90%; pest or weed control at 250 g/ha [18]: 0%; pest or weed control at 250 g/ha [19]: 0% |
| Cc1c(F)cccc1NC(=O)[C@H]1C(=O)N(C)C[C@@H]1c1cc(F)cc(Cl)c1 [Compound 978] | 40 | 90 | 90 | 90 | 90 | 90 | 0 | 50 | 90 | 60 | 90 | 50 | 0 | 60 | 60 | 90 | 0 | 0 | 50 | 70 | pest or weed control at 125 g/ha [5]: 90%; pest or weed control at 250 g/ha [16]: 65%; pest or weed control at 250 g/ha [17]: 100%; pest or weed control at 250 g/ha [18]: 30%; pest or weed control at 250 g/ha [19]: 0% |
| COc1cc(OC)cc([C@H]2CN(C)C(=O)[C@@H]2C(=O)Nc2ccccc2SC)c1 [Compound 981] | 0 | 90 | 90 | 100 | 90 | 100 | 0 | 0 | 50 | 0 | 60 | 0 | 0 | 0 | 0 | 70 | 0 | 0 | 0 | 0 | pest or weed control at 125 g/ha [5]: 0%; pest or weed control at 250 g/ha [16]: 0%; pest or weed control at 250 g/ha [17]: 0%; pest or weed control at 250 g/ha [18]: 0%; pest or weed control at 250 g/ha [19]: 0% |
